The text below walks through data of patent publication US10344037B2, “Use of the FL-one hundred eighteen core chemical structure platform to generate FL-one hundred eighteen derivatives for treatment of human disease” (priority 2014, dated 2019).

pIC50: −log10 of the molar value. Read-outs that look alike come from different tables or passages of the source.

Data set [1] concerns DU145 prostate cancer cells. The data set can be described thus: Cell growth inhibition, cell counting after 72 h. The data set is classed as cell-based, human. The text has this:
(§1) Each dot is the mean±SD derived from 3 independent assays.
(§2) Irinotecan and topotecan are the only two analogs derived from direct modification of camptothecin (CPT) that are approved by the FDA for cancer treatment in clinical practice. […] In this regard, we obtain one DU145 parental prostate cancer cell line and two DU145-derived sub-lines with Top1 mutations (DU145-RC0.1, DU145-RC1).

Data set [2] has as its system RC0.1 (DU145-RC0.1) cells. Nature of the data set: Cell growth inhibition, DU145 sub-line with Top1 mutation. The data set is classed as cell-based, human.
Text: as §1, §2

Data set [3] concerns RC1 (DU145-RC1) cells. The description is as above. The data set is classed as cell-based, human.
Text: as §1, §2

The test system of data set [4] is HCT116 colon cancer cells. The data set can be described thus: cells. The data set is classed as cell-based, human. Conditions: for RP: IC50 of topotecan divided by IC50 of the drug.
Procedure: (§3) Cancer cell viability and growth are determined by MTT assay. […] MTT is used as a colorimetric substrate for measuring cell viability and growth. When cell growth is inhibited, there is an alteration of cellular redox activity, and thus rendering cells unable to reduce the MTT dye. Cells are seeded in 96 well plates overnight and then treated with or without a compound/drug in the presence or absence of an protein molecule inhibitor (e.g. ABCG2 inhibitor ko143) for 48-72 hours, MTT is added to a final concentration 0.5 mg/ml. Cells are continuously incubated in a 5% CO2 incubator at 37° C. for 4 h with MTT and then lysed with a cell lysis buffer (20% SDS, 50% N,N-dimethylformamide, pH 4.7), 100 μl per well, for 4 h in the incubator. Subsequently, cell absorbance in each well is measured at 570 nm with an Ultra Microplate Reader (Bio-Tek Instruments). Results are reported as the mean±SD from 3-5 independent assays at each point. […] After 72 hours, media is removed and cells are harvested using 0.5 ml of 0.25% Trypsin-EDTA. Cells are counted and viability is analyzed on a Vi-CELL XR Cell Viability Analyzer (Beckman Coulter).
Data set [5] concerns HCT116-NS6 cells. Nature of the data set: cells. The data set is classed as cell-based, human. The settings on record: for RP: IC50 of topotecan divided by IC50 of the drug.
Procedure: as §3
Data set [6] relates to HCT116-C4 cells. The data set can be described thus: cells. The data set is classed as cell-based, human. The settings on record: for RP: IC50 of topotecan divided by IC50 of the drug.
Procedure: Cancer cell viability and growth are determined by MTT assay. […] MTT is used as a colorimetric substrate for measuring cell viability and growth. When cell growth is inhibited, there is an alteration of cellular redox activity, and thus rendering cells unable to reduce the MTT dye. Cells are seeded in 96 well plates overnight and then treated with or without a compound/drug in the presence or absence of an protein molecule inhibitor (e.g. ABCG2 inhibitor ko143) for 48-72 hours, MTT is added to a final concentration 0.5 mg/ml. Cells are continuously incubated in a 5% CO2 incubator at 37° C. for 4 h with MTT and then lysed with a cell lysis buffer (20% SDS, 50% N,N-dimethylformamide, pH 4.7), 100 μl per well, for 4 h in the incubator. Subsequently, cell absorbance in each well is measured at 570 nm with an Ultra Microplate Reader (Bio-Tek Instruments). Results are reported as the mean±SD from 3-5 independent assays at each point. Alternatively, for FIG. 16, FIG. 17 and FIG. 19, cells are plated at a density of 300,000 cells/well in 6-well plates; cells are allowed to attach on the plate overnight. […] After 72 hours, media is removed and cells are harvested using 0.5 ml of 0.25% Trypsin-EDTA. Cells are counted and viability is analyzed on a Vi-CELL XR Cell Viability Analyzer (Beckman Coulter).
The subject of data set [7] is HCT116-A2 cells. Nature of the data set: cells. In kind it is cell-based, human. Conditions: for RP: IC50 of topotecan divided by IC50 of the drug.
Procedure: as §3
The subject of data set [8] is HCT116-G7 cells. The data set can be described thus: cells. In kind it is cell-based, human. The settings on record: for RP: IC50 of topotecan divided by IC50 of the drug.
Procedure: as §3
Data set [9] deals with HCT116-C8 cells. Nature of the data set: cells. The data set is classed as cell-based, human. Conditions: for RP: IC50 of topotecan divided by IC50 of the drug.
Procedure: as §3
In data set [10] the test system is ABCG2 in HCT116-A2 cells. The data set is classed as cell-based, human. How it is done:
Cell numbers are then counted at each drug concentration used. […] Cell numbers at each dot is the mean±SD derived from 3 independent assays. Data are plotted graphically and EC50 values are calculated using GraphPad Prism 6.0.
ABCG2 positive HCT116-derived colon cancer cells (HCT116-A2) grown at sub-confluence are treated with a series of concentrations of topotecan in triplicate for 72 hours in the presence or absence of Ko143 at 1 μM concentrations as shown. Cell numbers are then counted at each topotecan concentration used. […] Cell numbers at each dot is the mean±SD derived from 3 independent assays. Data are plotted graphically and EC50 values and R-values are calculated using GraphPad Prism 6.0.
Clinically, development of resistance to irinotecan and topotecan occurs commonly during treatment, often involving the upregulation of ABCG2. By increasing the rate of drug export, ABCG2 decreases the amount of SN-38, irinotecan or topotecan that accumulates intracellularly, thereby protecting cancer cells from the cytotoxic effects of these chemotherapeutic drugs.

For data set [11], the system named is ABCG2 in HCT116-A2 cells. The data set can be described thus: Growth inhibition after ABCG2 shRNA silencing. The data set is classed as cell-based, human. The settings on record: 72 hours. How it is done:
Actin is internal control. B and C. […] Cells at sub-confluence are infected with lentiviral particles containing nonsense shRNA (ns), or AGCG2-specific shRNA (sh1, sh2) to silence ABCG2 expression in the cells. […] Viability for each dose was determined using a ViCELL XR cell viability analyzer and normalized to that of DMSO control. Error bars=SEM, n=3 independent experiments. Data are plotted graphically and EC50 values are calculated using GraphPad Prism 6.0.

The test system of data set [12] is DU145 prostate cancer cells. Conditions: DU-145; adopted from Urasaki Y et al.; cited from earlier work.
Data set [13] has as its system RC0.1 (DU145-RC0.1) cells. Conditions: adopted from Urasaki Y et al.; cited from earlier work.
Data set [14] has as its system RC1 (DU145-RC1) cells. Conditions: adopted from Urasaki Y et al.; cited from earlier work.
The test system of data set [15] is survivin. The data set can be described thus: Western blot for survivin expression in FaDu cells. In kind it is cell-based, human. The settings on record: 24 hours.
The test system of data set [16] is human umbilical vein endothelial cells (HUVECS). The data set can be described thus: Cell growth and viability, MTT. In kind it is cell-based. Conditions: 72 hours.
In data set [17] the test system is cancer cells. The data set can be described thus: Cell growth and viability, MTT. The data set is classed as cell-based, human. Conditions: 72 hours. As to the method: Actin is an internal control for equal protein loading. […] Subconfluent cancer cells as shown are treated with a series of concentrations of crolibulin as shown (0-100 μM) for 72 hours. Cell growth and viability are determined via MTT assay. Each curve is the mean±SD from 4 independent assays.
Crolibulin is an anticancer drug that targets endothelial cells of the cancer vasculature system. Therefore, crolibulin is considered as a vascular disrupt agent (VDA).

Data set [18] deals with ABCG2 in HEK293 cells. The data set can be described thus: Intracellular drug concentration by flow cytometry. In kind it is cell-based, human. As to the method: Cells are then incubated for 3 h in 37 C and 5% CO2, with manual agitation every 30 min. After incubation, cells are pelleted and supernatant is removed. Cell pellets are washed twice with ice-cold PBS, and then suspended in 300 uL ice-cold PBS, and placed on ice until analysis. Cells are analyzed on a LSR II flow cytometer (BD Biosciences, San Jose Calif.) with a 355 nm laser and a 540 nm band-pass filter to detect emission. Median fluorescence intensity (MFI) of each drug+/−Ko143 is compared.

Data set [19] deals with HCT-8 cells. The data set can be described thus: Colony formation after 2 h or 6 h drug treatment. In kind it is cell-based, human. As to the method: Subconfluent SW620, HCT-8, and HCT-116 cells were lysed and analyzed for the expression of MDR1 and ABCG2 using western blots (WB). Actin is the internal control. […] Cell growth/viability was then analyzed by MTT assays. Each time point in the individual curve is the mean±SD from 3 to 5 independent assays. […] Drugs were then washed out and cells were allowed to grow in new medium without drugs for 2 weeks. Cell colonies were stained with crystal violet solution; images were digitally taken. Triplicate results are shown.
Cell growth is then measured and the data are plotted as percentage of growth inhibition (no drug treatment was set at 0%). […] C. […] Representative cancer cell images were taken with a digital camera under phase-contrast microscope.

The nature of data set [20]: in vivo. The settings on record: SCID, mouse, in vivo, ip. How it is done: Individual tumor curves derived from individual mice are shown. A. Mice with FaDu head-&-neck tumor xenografts were first treated with irinotecan at its maximum tolerated dose (MTD, 100 mg/kg, IP) weekly for 4-5 times (black arrow). […] B. Mice with FaDu tumor xenografts were first treated with topotecan at its MTD (4 mg/kg, IP) via daily×5 schedules for 4 cycles (each black arrow is one cycle). […] C. Mice with SW620 CRC xenografts were first treated with irinotecan at its MTD (IP, weekly×4, black arrow). […] D. Mice with SW620 xenograft tumors were first treated with topotecan at its MTD.

The test system of data set [21] is ABCG2 in HEK293 cells.
Setting [22] is: DU-145, IC50 of topotecan divided by IC50 of the drug.

As for `CCc1c2c(nc3ccc(O)cc13)-c1cc3c(c(=O)n1C2)COC(=O)[C@]3(O)CC` [SN-38], the “RP (relative potency)” value in data set [1] worked out at 4.75; in data set [2], 5.24; in data set [3], 13.2. Besides, the negative logarithm of the IC50 (pIC50) in data set [4] is 9.72; in data set [5], 8.95; in data set [6], 7.59; in data set [7], 7.36; in data set [8], 8.32; in data set [9], 8.07. For the same compound, the pIC50 in data set [12] was 7.40; in data set [13], 4.93; in [14], 5.35. The RP in data set [4] came out at 2.474; in [5], 5.055; in [6] it was 3.337; in [7], 2.499; in [8], 4.048; in data set [9] it was 44.69. The “effect of ABCG2 inhibitor Ko143 on potency” value in data set [10] (HCT116-A2 cells, 72 hours, Ko143 1 μM) is on record as “Ko143 restores potency to SN-38”. The “effect of silencing of ABCG2 on cell growth inhibition” value in data set [11] was “significantly sensitizes SN-38 to inhibit cell growth”.
Turning to `CC[C@@]1(O)C(=O)OCc2c1cc1n(c2=O)Cc2cc3ccccc3nc2-1` [CPT, camptothecin], the “RP (relative potency)” value in data set [1] (setting [22]) is on record as 3.17; in [2] (RC0.1, IC50 of topotecan divided by IC50 of the drug) it was 0.97; in data set [3] (RC1, IC50 of topotecan divided by IC50 of the drug), 2.69. In addition, the pIC50 in data set [12] is 7.22; in data set [13], 4.20; in [14] it was 4.66.
Turning to `COc1cc([C@H]2C(C#N)=C(N)Oc3c2ccc(N)c3N)cc(Br)c1OC` [crolibulin, reference compound], in data set [15], the survivin expression result was “strongly induce survivin expression”. For the same compound, in data set [16], the “sensitivity of HUVEC cells” value is given as “sensitive to crolibulin inhibition”. In addition, in data set [17], the “sensitivity of cancer cells” value is reported as “resistant to crolibulin inhibition”.
As to `CC[C@@]1(O)C(=O)OCc2c1cc1n(c2=O)Cc2cc3c(CN(C)C)c(O)ccc3nc2-1` [Topotecan, topotecan], the “RP (relative potency)” value in data set [1] (setting [22]), in [2] and in [3] was 1 throughout. Moreover, the pIC50 in [4] (Homo sapiens, HCT-116) is 9.13; in data set [5] (Homo sapiens), 8.25; in data set [6] (Homo sapiens), 7.07; in data set [7] (Homo sapiens), 6.96; in data set [8] (Homo sapiens), 7.71; in [9] (Homo sapiens), 6.42. The pIC50 is 6.72 in [12], 4.21 in data set [13] and 4.23 in [14]. In addition, the RP in data set [4], in data set [5], in data set [6], in data set [7], in data set [8] and in data set [9] was 1 each time. In addition, the “effect of ABCG2 inhibitor Ko143 on potency” value in [10] is “ABCG2 is also a topotecan resistance factor”. In addition, the “effect of ABCG2 overexpression on intracellular concentration” value in data set [18] is on record as “decreases intracellular concentration”. Further, the “colony formation inhibition, 6 hours versus 2 hours of treatment” value in data set [19] is reported as “significantly better colony formation inhibition”. Besides, in data set [20], the MTD worked out at 4 mg/kg. In addition, the “effect of ABCG2 overexpression on IC50 for inhibition of cell growth” value in [21] is on record as “significantly increases IC50”.
